# Laboratory results published in patent US6252121A, “Metal-ligand complex catalyzed processes” (Union Carbide Chemicals & Plastics Technology Corporation, priority 1999, dated 2001).
# Columns and labels:
# [1] = Partition of polar hydroformylation products, acetonitrile/hexane (GC); type: physicochemical; conditions: hexane/acetonitrile equal volumes
# Experimental: The efficiency of the phase separation can be measured by a partition coefficient Kp of the one or more cyclic products which is defined as follows: [formula]
# Solutions of polar hydroformylation products were prepared in acetonitrile. To each solution was added an equal volume of hexane, the mixture was vigorously shaken, allowed to settle and phase separate. The two phases were analyzed for polar aldehydes by gas chromatography.
# [2] = Hydroformylation reaction rate of rhodium/ligand catalyst; conditions: 90° C., 300 ppm Rh, ligand/rhodium 20/1
# Experimental: […] A mixture of 1,2,3,6-tetrahydrobenzaldehyde (6 grams) and octane (4 grams, internal standard) was added to the autoclave. The reaction rate was determined by gas chromatographic analyses of the samples taken during the course of reaction.
# The procedure described in Example 1 was repeated with the modification of using Ligands B-F in place of Ligand A. The reaction rates for Ligands B-F are summarized in Table 1.
# [3] = Relative hydroformylation reaction rates with Ligands C and G-J
# Experimental: […]. A mixture of 1,2,3,6-tetrahydrobenzaldehyde (6 grams) and octane (4 grams, internal standard) was added to the autoclave. The reaction rate was determined by gas chromatographic analyses of the samples taken during the course of reaction.
# [4] = Miscibility of reaction products with toluene (Comparative Example); type: physicochemical; conditions: reaction at 100° C. for 24 hours; no spontaneous phase separation
# Experimental: The reaction was carried out at 100° C. for 24 hours. No spontaneous phase separation was observed upon the reaction completion.
# [5] = hexane, 100 psi syngas (CO/H2 1:1)
# [6] = Tetraglyme, 90° C., L/Rh ratio 20
compound,measurement,setting,value
"1,3- and 1,4-cyclohexanedicarboxaldehyde",Kpartition of polar product,[1]; 5 wt. %,38
same,Kpartition of polar product,[1]; 10 wt. %,34
same,Kpartition of polar product,[1]; 20 wt. %,35
3-cyano-1-cyclohexanecarboxaldehyde and 4-cyano-1-cyclohexanecarboxaldehyde [cyanocyclohexanecarboxaldehyde],Kpartition of polar product,[1]; 10 wt. %,69
CC(C)(c1ccccc1)c1ccc(OP(Oc2ccc(C(C)(C)c3ccccc3)cc2C(C)(C)c2ccccc2)Oc2ccc(C(C)(C)c3ccccc3)cc2C(C)(C)c2ccccc2)c(C(C)(C)c2ccccc2)c1 [Ligand A],reaction rate,[2]; [5],2.5 mol/L-hr
CC(C)(C)c1ccccc1OP(Oc1ccccc1C(C)(C)C)Oc1ccccc1C(C)(C)C [Ligand B],reaction rate,[2]; [5],3.4 mol/L-hr
CC(C)(C)c1ccc(OP(Oc2ccc(C(C)(C)C)cc2C(C)(C)C)Oc2ccc(C(C)(C)C)cc2C(C)(C)C)c(C(C)(C)C)c1 [Ligand C],reaction rate,[2]; [5],4.0 mol/L-hr
same,reaction rate,"[2]; toluene in place of hexane, 100 psi syngas",4.4 mol/L-hr
same,Relative Rate,[3]; [6],1
CCC(C)(C)c1ccc(OP(Oc2ccc(C(C)(C)CC)cc2C(C)(C)CC)Oc2ccc(C(C)(C)CC)cc2C(C)(C)CC)c(C(C)(C)CC)c1 [Ligand D],reaction rate,[2]; [5],3.6 mol/L-hr
CCCCCC(C)(C)c1ccc(OP(Oc2ccc(C(C)(C)CCCCC)cc2C(C)(C)CCCCC)Oc2ccc(C(C)(C)CCCCC)cc2C(C)(C)CCCCC)c(C(C)(C)CCCCC)c1 [Ligand E],reaction rate,[2]; [5],3.7 mol/L-hr
CCCCCCCCCC(C)(C)c1ccc(OP(Oc2ccc(C(C)(C)CCCCCCCCC)cc2C(C)(C)CCCCCCCCC)Oc2ccc(C(C)(C)CCCCCCCCC)cc2C(C)(C)CCCCCCCCC)c(C(C)(C)CCCCCCCCC)c1 [Ligand F],reaction rate,[2]; [5],3.3 mol/L-hr
COc1ccc(Op2oc3c(C(C)(C)C)cc(OC)cc3c3cc(OC)cc(C(C)(C)C)c3o2)c(C(C)(C)C)c1 [Ligand G],Relative Rate,[3]; [6],0.46
CC(C)(C)c1cc(-c2cc(C(C)(C)C)cc(C(C)(C)C)c2Op2oc3ccccc3c3ccccc3o2)c(Op2oc3ccccc3c3ccccc3o2)c(C(C)(C)C)c1 [Ligand H],Relative Rate,"[3]; Tetraglyme, 90° C., L/Rh ratio 4",0.34
C1CCC(P(C2CCCCC2)C2CCCCC2)CC1 [Ligand I],Relative Rate,"[3]; Tetraglyme, 120° C., L/Rh ratio 5",0.17
O=S(=O)(O)c1cccc(P(C2CCCCC2)C2CCCCC2)c1 [Ligand J],Relative Rate,"[3]; 1-Methyl-2-pyrrolidinone, 120° C., L/Rh ratio 5",0.14
tricyclodecane dialdehydes,miscibility with toluene,[4],completely miscible with toluene
